Reference: patent US6147097A, “Imidazole derivatives as anti-HIV agents” (Shionogi & Co., Ltd., priority 1994, dated 2000)
≈ marks a conversion by molar mass, not a printed value. Where two headings read alike, the source gives them in different places.

Experiments:
HIV (HTLV-IIIB strain) = experiment: microbe, parasite or virus in culture; assay type: cell-based; conditions: Human immunodeficiency virus 1, IIIB, MT4, 120 h
In short: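 MT-4 cells (3.5×10^4 per well) were infected with HIV at 60 pfu per well in the presence of diluted compound and incubated for 5 days at 37° C. Surviving cells were then measured by MTT reduction, with the formazan dissolved in acidified isopropanol containing Triton X-100.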

[1] = cytotoxicity in MT-4 cells (MTT, culture medium in place of HIV); assay type: cell-based; conditions: human
In short: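 MT-4 cells (3.5×10^4 per well) exposed to diluted compound with culture medium added instead of HIV, 5 days at 37° C in CO2. MTT added for 1 h, formazan dissolved in Triton X-100/acidified isopropanol. OD read at 560 nm (690 nm reference) and compared with control.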

[2] = molecular target: T1, purified recombinant HIV-1 reverse transcriptase (Human immunodeficiency virus type 1 group M subtype B, UniProt P04585); experiment: reverse transcriptase inhibition, poly(rA)/(dT) template primer, [3H]dTTP uptake; assay type: biochemical
T1 construct: purified recombinant HIV-1 reverse transcriptase; made in house; host or cells: Escherichia coli
In short: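 Inhibition reported as percent reduction of [3H]dTTP incorporation relative to solvent control, after 1 h at 37 °C at pH 8.3. Recombinant RT from E. coli, poly(rA) template with oligo(dT) primer, 4 μM unlabeled dTTP as substrate; product collected on DEAE filter mats.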

[3] = MT-4 cells, 60 pfu HIV per well, 37° C., 5 days, MTT, Tables 1 and 2, read-out: EC50
[4] = MT-4 cells, no virus, 37° C., 5 days, MTT, Table 3, read-out: CC50

SMILES | EC50 (HIV (HTLV-IIIB strain); [3]) [µg/mL] | CC50 at 120 h ([1]; mt-4 cells) [µg/mL] | IC50 [2] [µM] | CC50 at 120 h [1, 4] [µg/mL] | EC50 (HIV (HTLV-IIIB strain)) [µg/mL]
CC(C)c1nc(CCOC(N)=O)n(Cc2ccccc2[N+](=O)[O-])c1Sc1cc(Cl)cc(Cl)c1 [Compound 128c, 2-(2-Carbamoyloxyethyl)-5-(3,5-dichlorophenylthio)-4-isopropyl-1-(o-nitrobenzyl)-1H-imidazole] | 0.25 (≈ 0.491 µM) | 6.3 to 12.5 (≈ 12.4 to 24.5 µM) | > 196 | – | –
CC(C)c1c(Sc2cc(Cl)cc(Cl)c2)nc(CO)n1C [Compound I-39, [4-(3,5-dichlorophenylthio)-5-isopropyl-1-methyl-1H-imidazol-2-yl]methanol] | 1 to 10 (≈ 3.02 to 30.2 µM) | – | 198 | 10 to 100 (≈ 30.2 to 302 µM) | –
CC(C)c1nc(CCCOCc2ccccc2)n(CCO)c1Sc1cc(Cl)cc(Cl)c1 [Compound 136e, 2-(2-(3-benzyloxypropyl)-5-(3,5-dichlorophenylthio)-4-isopropyl-1H-imidazol-1-yl)-ethanol] | 0.5 to 1 (≈ 1.04 to 2.09 µM) | 6.3 to 12.5 (≈ 13.1 to 26.1 µM) | > 209 | – | –
CC(C)c1nc(COC(N)=O)n(CCc2ccccn2)c1Sc1cc(Cl)cc(Cl)c1 [Compound I-129, 2-carbamoyloxymethyl-5-(3,5-dichlorophenylthio)-4-isopropyl-1-(2-(2-pyridyl)ethyl)-1H-imidazole] | 0.06 (≈ 0.129 µM) | 12.5 to 25 (≈ 26.9 to 53.7 µM) | 76.9 | – | –
CC(O)Cn1c(CO)nc(C(C)C)c1Sc1cc(Cl)cc(Cl)c1 (stereo not drawn) [I-32', [1-(2-hydroxypropyl)-5-(3,5-dichlorophenylthio)-4-isopropyl-1H-imidazol-2-yl]methanol] | 0.002 to 0.004 (≈ 0.00533 to 0.0107 µM) | – | 1.52 | 12.5 to 25 (≈ 33.3 to 66.6 µM) | –
CC(C)c1nc(CO)n(Cc2cccs2)c1Sc1cc(Cl)cc(Cl)c1.Cl [Compound I-126, 5-(3,5-dichlorophenylthio)-2-hydroxymethyl-4-isopropyl-1-(2-thienylmethyl)-1H-imidazole hydrochloride] | 0.03 | 12.5 to 25 | 30.9 | – | –
CC(C)c1nc(CCOCc2ccccc2)n(Cc2ccncc2)c1Sc1cc(Cl)cc(Cl)c1 [Compound 122b, 4-[2-(2-benzyloxyethyl)-5-(3,5-dichlorophenylthio)-4-isopropyl-1H-imidazol-1-ylmethy]pyridine] | 0.5 to 1 (≈ 0.976 to 1.95 µM) | 6.3 (≈ 12.3 µM) | 71.4 | – | –
CNC(=O)OCc1nc(C(C)C)c(Sc2cc(Cl)cc(Cl)c2)n1C [Compound I-43, 5-(3,5-dichlorophenylthio)-4-isopropyl-1-methyl-2-(N-methylcarbamoyl)oxymethyl-1H-imidazole] | 0.25 (≈ 0.644 µM) | – | 13.6 | 1 to 10 (≈ 2.58 to 25.8 µM) | –
CCn1c(CO)nc(C(C)C)c1Sc1cc(Cl)cc(Cl)c1 [Compound I-25, 2-[5-(3,5-dichlorophenylthio)-1-ethyl-4-isopropyl-1H-imidazol-2-yl]methanol] | 0.004 (≈ 0.0116 µM) | – | 1.39 | 10 to 100 (≈ 29 to 290 µM) | –
CC(C)c1nc(CO)n(C(C)C)c1Sc1cc(Cl)cc(Cl)c1 [Compound I-27, [5-(3,5-dichlorophenylthio)-1,4-diisopropyl-1H-imidazol-2-yl]methanol] | 0.03 (≈ 0.0835 µM) | – | 3.34 | 10 to 100 (≈ 27.8 to 278 µM) | –
Cc1nc(C(C)C)c(Sc2cccc(Cl)c2)n1C [Compound I-3, 5-(3-chlorophenylthio)-1,2-dimethyl-4-isopropylimidazole] | 0.03 (≈ 0.107 µM) | – | 3.56 | 12.5 (≈ 44.5 µM) | –
CCn1c(CCCO)nc(C(C)C)c1Sc1cc(Cl)cc(Cl)c1 [Compound 137b, 3-(5-(3,5-dichlorophenylthio)-1-ethyl-4-isopropyl-1H-imidazol-2-yl)-propan-1-ol] | 0.005 to 0.01 (≈ 0.0134 to 0.0268 µM) | 6.3 to 12.5 (≈ 16.9 to 33.5 µM) | 0.991 | – | –
CC(C)c1nc(CCOC(N)=O)n(Cc2ccc(N)cc2)c1Sc1cc(Cl)cc(Cl)c1 [Compound I-140, 1-(p-aminobenzyl)-2-(2-carbamoyloxyethyl)-5-(3,5-dichlorophenylthio)-4-isopropyl-1H-imidazole] | 0.03 to 0.06 (≈ 0.0626 to 0.125 µM) | 6.3 to 12.5 (≈ 13.1 to 26.1 µM) | 29.8 | – | –
CC(C)c1nc(CCO)n(Cc2ccccc2N)c1Sc1cc(Cl)cc(Cl)c1 [Compound I-143] | 0.008 (≈ 0.0183 µM) | 12.5 (≈ 28.6 µM) | 77 | – | –
C=CCn1c(CO)nc(C(C)C)c1Sc1cccc(Cl)c1 [Compound I-17, [1-allyl-5-(3-chlorophenylthio)-4-isopropyl-1H-imidazol-2-yl]methanol] | 0.005 to 0.01 (≈ 0.0155 to 0.031 µM) | – | < 2.48 | 6.3 to 12.5 (≈ 19.5 to 38.7 µM) | –
CC(C)c1c(Sc2cccc(Cl)c2)nc(COC(N)=O)n1C [Compound I-59, 2-carbamoyloxymethyl-4-(3-chlorophenylthio)-5-isopropyl-1-methylimidazole] | – | – | > 294 | 12.5 to 25 (≈ 36.8 to 73.6 µM) | 12.5 (≈ 36.8 µM)

SMILES | EC50 (HIV (HTLV-IIIB strain); [3]) [µg/mL] | CC50 at 120 h ([1]; mt-4 cells) [µg/mL] | IC50 [2] [µM] | CC50 at 120 h [1, 4] [µg/mL] | EC50 (HIV (HTLV-IIIB strain)) [µg/mL]
CCCCn1c(CO)nc(C(C)C)c1Sc1cc(Cl)cc(Cl)c1 [Compound I-15, [1-n-butyl-5-(3,5-dichlorophenylthio)-4-isopropyl-1H-imidazol-2-yl]methanol] | 0.005 to 0.01 (≈ 0.0134 to 0.0268 µM) | – | 2.01 | 6.3 to 12.5 (≈ 16.9 to 33.5 µM) | –
CCn1c(CN)nc(C(C)C)c1Sc1ccccc1 [Compound I-75, 2-aminomethyl-1-ethyl-4-isopropyl-5-phenylthio-1H-imidazole] | 0.01 (≈ 0.0363 µM) | 16.5 (≈ 59.9 µM) | 0.799 | – | –
C=CCn1c(CO)nc(C(C)C)c1Sc1cccc([N+](=O)[O-])c1 [Compound I-22, [1-allyl-4-isopropyl-5-(3-nitrophenylthio)-1H-imidazol-2-yl]methanol] | – | – | 1.68 | 25 (≈ 75 µM) | 0.002 (≈ 0.006 µM)
CCCn1c(CO)nc(C(C)C)c1Sc1cccc([N+](=O)[O-])c1 [Compound I-24, [4-isopropyl-5-(3-nitrophenylthio)-1-n-propyl-1H-imidazol-2-yl]methanol] | 0.008 (≈ 0.0239 µM) | – | 2.98 | 25 (≈ 74.5 µM) | –
CCn1c(CO)nc(C(C)C)c1Sc1cccc(Cl)c1 [Compound I-28, [1-ethyl-5-(3-chlorophenylthio)-4-isopropyl-1H-imidazol-2-yl]methanol] | 0.002 to 0.004 (≈ 0.00643 to 0.0129 µM) | – | 0.643 | 12.5 (≈ 40.2 µM) | –
CC(C)c1nc(CO)n(CC(C)(C)O)c1Sc1cc(Cl)cc(Cl)c1 [Compound I-153, 5-(3,5-dichlorophenylthio)-2-hydroxymethyl-1-(2-hydroxy-2-methylpropyl)-4-isopropyl-1H-imidazole] | 0.016 (≈ 0.0411 µM) | 12.5 (≈ 32.1 µM) | 25.7 | – | –
CCn1c(CCO)nc(C(C)C)c1Sc1cc(Cl)cc(Cl)c1 [Compound 123a, 2-[5-(3,5-dichlorophenylthio)-1-ethyl-4-isopropyl-1H-imidazol-2-yl]ethanol] | 0.0006 (≈ 0.00167 µM) | 6.3 to 12.5 (≈ 17.5 to 34.8 µM) | 0.417 | – | –
CC(C#N)c1nc(COC(N)=O)n(C)c1Sc1cccc(Cl)c1 (stereo not drawn) [Compound I-98, 2-[2-carbamoyloxymethyl-5-(3-chlorophenylthio)-1-methyl-1H-imidazol-4-yl]propiononitrile] | – | – | 105 | 10 to 100 (≈ 28.5 to 285 µM) | 1 (≈ 2.85 µM)
CC(C)c1nc(COC(N)=O)n(C)c1Sc1cccc(Cl)c1 [Compound I-42, 2-carbamoyloxymethyl-5-(3-chlorophenylthio)-4-isopropyl-1-methyl-1H-imidazole] | – | 8 (≈ 23.5 µM) | 5 | – | 0.07 (≈ 0.206 µM)
Cc1cc(C)cc(Sc2c(C(C)C)nc(C=NO)n2C)c1 [Compound I-10, 5-(3,5-dimethylphenylthio)-4-isopropyl-1-methyl-1H-imidazole-2-carbaldehyde oxime] | 1 (≈ 3.3 µM) | – | > 330 | > 100 | –
CC(C)c1nc(CO)n(Cc2cccc3ccccc23)c1Sc1cc(Cl)cc(Cl)c1.Cl [Compound I-120, 5-(3,5-dichlorophenylthio)-2-hydroxymethyl-4-isopropyl-1-(1-naphthylmethyl)-1H-imidazole hydrochloride] | 0.13 | 100 | 99.6 | – | –
CC(C)c1nc(CN(C)C)n(C)c1Sc1cc(Cl)cc(Cl)c1 [Compound I-78, 5-(3,5-dichlorophenylthio)-2-dimethylaminomethyl-4-isopropyl-1-methyl-1H-imidazole] | 1 (≈ 2.79 µM) | – | 129 | 1 to 10 (≈ 2.79 to 27.9 µM) | –
CCOC(=O)Cn1c(CCCOCc2ccccc2)nc(C(C)C)c1Sc1cc(Cl)cc(Cl)c1 [Compound 136d, (2-(3-benzyloxypropyl)-5-(3,5-dichlorophenylthio)-4-isopropyl-1H-imidazol-1-yl)-ethyl acetate] | 0.5 | 12.5 | > 192 | – | –
CC(C)c1nc(CCO)n(CCO)c1Sc1cc(Cl)cc(Cl)c1 [Compound 131c, 2-(5-(3,5-dichlorophenylthio)-2-(2-hydroxyethyl)-4-isopropyl-1H-imidazol-1-yl)ethanol] | < 0.008 | 6.3 to 12.5 (≈ 16.8 to 33.3 µM) | 2.58 | – | –
CC(C)c1nc(CO)n(C)c1Cc1cccc(Cl)c1 [Compound I-102, [5-(3-chlorobezyl)-4-isopropyl-1-methyl-1H-imidazol-2-yl]methanol] | 0.5 to 1 (≈ 1.79 to 3.59 µM) | – | 86.4 | 1 to 10 (≈ 3.59 to 35.9 µM) | –
CC(C)c1nc(CCO)n(Cc2ccncc2)c1Sc1cc(Cl)cc(Cl)c1 [Compound 123b, 2-[5-(3,5-dichlorophenylthio)-4-isopropyl-1-(pyridin-4-ylmethyl)-1H-imidazol-2-yl]ethanol] | 0.003 (≈ 0.0071 µM) | 12.5 to 25 (≈ 29.6 to 59.2 µM) | 0.355 | – | –
